According to patent US20070197660A1, “Compounds for modulating cell proliferation” (The Hospital for Sick Children, priority 2003, published 2007):
Where two headings read alike, the source gives them in different places.

Legend:
Type in all cases: cell-based
Z119 cells = test: Killing of Philadelphia positive Z119 acute lymphoblastic leukemia cells in culture (colony assay); conditions: 168 h, Z119 Ph+ ALL cells, colonies >20 cells counted at 7 days or earlier, methylcellulose, read-out: ALL (Z 119) IC 50
Experimental: Z119 cells are plated in 1 mL volumes at a density of 1×10^4 cells/mL, in the absence of exogenous growth factors, into 35 mm petri dishes (Nunc, Gibco) containing IMDM (OCI, Toronto) plus 20% FCS (Cansera Rexdale, ON) in 0.9% (vol/vol) methylcellulose (Fluka, Switzerland) with various concentrations of test compounds. Cultures are set at 37° C., 5% CO2 in a humidified atmosphere. Colonies consisting of more than 20 cells are counted at 7 days or earlier using an inverted microscope. Results see Tables 4 and 8.

NBM (BFU-E) = test: Effect upon normal bone marrow differentiation in culture (CFU-GEMM assay, BFU-E); conditions: BFU-E colonies
Description: A CFU-GEMM assay may be performed according to Fauser and Messner (1978, Blood, 52(6) 143-8) and Messner and Fausser (1980, Blut, 41(5) 327-33).

OCI-AML-3 cells = test: Killing of AML3 acute myeloid leukemia cells in culture (colony assay); conditions: Homo sapiens, colonies >20 cells scored at 5-6 days, methylcellulose
Experimental: OCI-AML-3 cells are plated in 35 mm petri dishes (Nunc, Gibco) in 1 mL volumes at a density of 3.3×10^3 cells/mL, in the absence of exogenous growth factors, containing alpha MEM plus 20% FCS (Cansera, Rexdale Ont.), and 0.9% (vol/vol) methylcellulose (Fluka, Switzerland) and various concentrations of test compounds. Cell cultures are incubated in a humidified atmosphere at 37° C. with 5% CO2. Colonies containing more than 20 cells are scored, using an inverted microscope, at 5-6 days. Results see Tables 4 and 8.

[1] = Table 4, read-out: NBM (BFU-E) IC 50
[2] = Table 4, read-out: AML (OCI AML-3) IC 50
[3] = Table 8, read-out: NBM (BFU-E) IC 50
[4] = Table 8, read-out: AML (OCI AML-3) IC 50

**Q.** What does the source list for `COCCOCCOCCOC(=O)/C(C#N)=C/C=C/c1ccc(O)c(O)c1` [CRIV-42, 2-Cyano-5-(3,4-dihydroxyphenyl)-penta-2E,4E-dienoic acid 2-[2-(2-methoxyethoxy)ethoxy]ethyl ester]?
**A.** IC50 (Z119 cells; Table 4): ≥ 500 nM; IC50 (NBM (BFU-E); [1]): ≥ 10000 nM; IC50 (OCI-AML-3 cells; [2]): 90 nM

**Q.** `COc1cc(/C=C/C=C(\C#N)C(=O)OCc2ccccc2)cc(OC)c1O` [CRIX-38, 2-Cyano-5-(4-hydroxy-3,5-dimethoxyphenyl)-penta-2E,4E-dienoic acid benzyl ester] was tested. Which IC50 (Z119 cells; Table 4) did it give?
**A.** > 1000 nM

**Q.** What about the IC50 (NBM (BFU-E); [1]) of the same molecule?
**A.** ≤ 10000 nM

**Q.** What about the IC50 (OCI-AML-3 cells; [2]) of the same molecule?
**A.** > 500 nM

**Q.** What does the source list for `N#C/C(=C\C=C\c1ccc(O)c(O)c1)C(=O)OCc1ccccc1` [CRIX-39, 2-Cyano-5-(3,4-dihydroxyphenyl)-penta-2E,4E-dienoic acid benzyl ester]?
**A.** IC50 (Z119 cells; Table 4): ≥ 600 nM; IC50 (NBM (BFU-E); [1]): 8000 nM; IC50 (OCI-AML-3 cells; [2]): 90 nM

**Q.** What does the source list for `N#C/C(=C\C=C\c1ccc(O)c(O)c1)S(=O)(=O)c1ccccc1` [CRVIII-33, 2-Benzenesulfonyl-5-(3,4-dihydroxyphenyl)-penta-2E,4E-dienenitrile]?
**A.** IC50 (Z119 cells; Table 8): ≥ 550 nM; IC50 (NBM (BFU-E); [3]): 12000 nM; IC50 (OCI-AML-3 cells; [4]): > 500 nM

**Q.** With `COc1cc(/C=C/C=C(\C#N)S(=O)(=O)c2ccccc2)cc(OC)c1O` [CRVIII-34, 2-Benzenesulfonyl-5-(4-hydroxy-3,5-dimethoxyphenyl)-penta-2E,4E-dienenitrile] as the molecule, how does the IC50 (Z119 cells; Table 8) read?
**A.** > 1000 nM

**Q.** And the IC50 (NBM (BFU-E); [3])?
**A.** ≤ 10000 nM

**Q.** And the IC50 (OCI-AML-3 cells; [4])?
**A.** > 500 nM

**Q.** Which results are given for `N#C/C(=C\C=C\c1ccc([N+](=O)[O-])cc1)S(=O)(=O)c1ccccc1` [CRVIII-35, 2-Benzenesulfonyl-5-(4-nitrophenyl)-penta-2E,4E-dienenitrile]?
**A.** IC50 (Z119 cells; Table 8): > 1000 nM; IC50 (NBM (BFU-E); [3]): > 5000 nM; IC50 (OCI-AML-3 cells; [4]): > 500 nM

**Q.** What does the source list for `N#C/C(=C\C=C\c1ccc(O)c(O)c1)S(=O)(=O)c1ccccn1` [CRVIII-50, 5-(3,4-Dihydroxyphenyl)-2-(pyridine-2-sulfonyl)-penta-2E,4E-dienenitrile]?
**A.** IC50 (Z119 cells; Table 8): ≥ 170 nM; IC50 (NBM (BFU-E); [3]): ≤ 5000 nM; IC50 (OCI-AML-3 cells; [4]): ≥ 250 nM

**Q.** For `N#C/C(=C\C=C\c1ccc(O)c(O)c1)S(=O)(=O)c1ccc(Cl)cc1` [CRVIII-51, 2-(4-Chlorobenzenesulfonyl)-5-(3,4-dihydroxyphenyl)-penta-2E,4E-dienenitrile], which IC50 (Z119 cells; Table 8) is on record?
**A.** 230 nM

**Q.** And the IC50 (NBM (BFU-E); [3])?
**A.** ≥ 5000 nM

**Q.** And the IC50 (OCI-AML-3 cells; [4])?
**A.** 250 to 500 nM

**Q.** Which IC50 (Z119 cells; Table 8) does the source give for `Cc1ccc(S(=O)(=O)/C(C#N)=C/C=C/c2ccc(O)c(O)c2)cc1` [CRVIII-52, 5-(3,4-Dihydroxyphenyl)-2-(toluene-4-sulfonyl)-penta-2E,4E-dienenitrile] here?
**A.** 250 to 500 nM

**Q.** What about the IC50 (NBM (BFU-E); [3]) of the same molecule?
**A.** ≤ 10000 nM

**Q.** What about the IC50 (OCI-AML-3 cells; [4]) of the same molecule?
**A.** 250 to 500 nM

**Q.** Which results are given for `CS(=O)(=O)/C(C#N)=C/C=C/c1ccc(O)c(O)c1` [CRVIII-53, 5-(3,4-Dihydroxyphenyl)-2-methanesulfonyl-penta-2E,4E-dienenitrile]?
**A.** IC50 (Z119 cells; Table 8): 450 nM; IC50 (NBM (BFU-E); [3]): ≤ 10000 nM; IC50 (OCI-AML-3 cells; [4]): 250 to 500 nM

**Q.** Which IC50 (Z119 cells; Table 4) does the source give for `COCCOCCOCCOC(=O)/C(C#N)=C/C=C/c1cc(OC)c(O)c(OC)c1` [GRIV-46, 2-Cyano-5-(4-hydroxy-3,5-dimethoxyphenyl)-penta-2E,4E-dienoic acid 2-[2-(2-methoxyethoxy)ethoxy]ethyl ester] here?
**A.** > 500 nM

**Q.** What about the IC50 (NBM (BFU-E); [1]) of the same molecule?
**A.** ≥ 10000 nM

**Q.** And the IC50 (OCI-AML-3 cells; [2])?
**A.** ≥ 500 nM
